Measurements: patent US10752584B2 (EMORY UNIVERSITY, priority 2016, dated 2020)

Tests used:
Assay type in all cases: cell-based
[1] = Cellular toxicity assay in human PBM cells; conditions: human, human PBM cells, read-out: Cytotoxicity
Experimental: (§1) The toxicity of the compounds was assessed in Vero, human PBM, CEM (human lymphoblastoid), MT-2, and HepG2 cells, as described previously (see Schinazi R. F., Sommadossi J.-P., Saalmann V., Cannon D. L., Xie M.-Y., Hart G. C., Smith G. A. & Hahn E. F. Antimicrob. Agents Chemother. 1990, 34, 1061-67). Cycloheximide was included as positive cytotoxic control, and untreated cells exposed to solvent were included as negative controls. The cytotoxicity IC50 was obtained from the concentration-response curve using the median effective method described previously (see Chou T.-C. & Talalay P. Adv. Enzyme Regul. 1984, 22, 27-55; Belen'kii M. S. & Schinazi R. F. Antiviral Res. 1994, 25, 1-11).

[2] = Cellular toxicity assay in CEM cells; conditions: human, CEM lymphoblastoid cells, read-out: Cytotoxicity
Experimental: as §1

[3] = Cellular toxicity assay in Vero cells; conditions: African green monkey, read-out: Cytotoxicity
Experimental: as §1

[4] = Cellular toxicity assay in HepG2 cells; conditions: human, read-out: Cytotoxicity
Experimental: as §1

[5] = test system: wild type HBV; assay: Anti-HBV assay in AD-38 cell line; conditions: Hepatitis B virus, AD-38 cells, HBV in culture supernatant; for EC50: read-out: Anti-HBV activity EC50; for EC90: read-out: Anti-HBV activity EC90
Experimental: The anti-HBV activity of the compounds was determined by treating the AD-38 cell line carrying wild type HBV under the control of tetracycline (see Ladner S. K., Otto M. J., Barker C. S., Zaifert K., Wang G. H., Guo J. T., Seeger C. & King R. W. Antimicrob. Agents Chemother. 1997, 41, 1715-20). Removal of tetracycline from the medium [Tet (−)] results in the production of HBV. The levels of HBV in the culture supernatant fluids from cells treated with the compounds were compared with that of the untreated controls. Control cultures with tetracycline [Tet (+)] were also maintained to determine the basal levels of HBV expression. 3TC was included as positive control.
The median effective concentrations (EC50) ranges of several of the compounds described herein against HBV are shown in Table 3: […]

Cn1cc(C(=O)C(=O)N2CC(F)(F)C2)cc1C(=O)Nc1ccc(F)c(F)c1 [Compound 32, 4-(2-(3,3-difluoroazetidin-1-yl)-2-oxoacetyl)-N-(3,4-difluorophenyl)-1-methyl-1H-pyrrole-2-carboxamide]
CC50 [1]: > 100 µM
CC50 [2]: > 100 µM
CC50 [3]: > 100 µM
CC50 [4]: > 100 µM
EC50 [5]: 1000 to 9000 nM
EC90 [5]: 1000 to 9000 nM

C#CCNC(=O)C(=O)c1c(C)c(C(=O)Nc2cccc(OC(F)(F)F)c2)n(C)c1C [Compound 55, 1,3,5-trimethyl-4-(2-oxo-2-(prop-2-yn-1-ylamino)acetyl)-N-(3-(trifluoromethoxy)phenyl)-1H-pyrrole-2-carboxamide]
CC50 [1]: > 100 µM
CC50 [2]: 38 µM
CC50 [3]: 15 µM
CC50 [4]: 88 µM
EC50 [5]: 100 to 900 nM
EC90 [5]: 1000 to 9000 nM

Cc1c(C(=O)C(=O)Nc2nc3ccccc3[nH]2)c(C)n(C)c1C(=O)Nc1ccc(F)c(F)c1 [Compound 46, 4-(2-((1H-benzo[d]imidazol-2-yl)amino)-2-oxoacetyl)-N-(3,4-difluorophenyl)-1,3,5-trimethyl-1H-pyrrole-2-carboxamide]
CC50 [1]: > 100 µM
CC50 [2]: 38 µM
CC50 [3]: 10 µM
CC50 [4]: 7 µM
EC50 [5]: 100 to 900 nM
EC90 [5]: 1000 to 9000 nM

C#CCNC(=O)C(=O)c1c(C)c(C(=O)Nc2ccccc2)n(C)c1C [Compound 58, 1,3,5-trimethyl-4-(2-oxo-2-(prop-2-yn-1-ylamino)acetyl)-N-phenyl-1H-pyrrole-2-carboxamide]
CC50 [1]: > 100 µM
CC50 [2]: > 100 µM
CC50 [3]: > 100 µM
CC50 [4]: > 100 µM
EC50 [5]: 10 to 90 nM
EC90 [5]: 100 to 900 nM

C#CCNC(=O)C(=O)c1c(C)c(C(=O)Nc2ccc(F)c(C)c2)n(C)c1C [Compound 64, N-(4-fluoro-3-methylphenyl)-1,3,5-trimethyl-4-(2-oxo-2-(prop-2-yn-1-ylamino)acetyl)-1H-pyrrole-2-carboxamide]
CC50 [1]: > 100 µM
CC50 [2]: 18 µM
CC50 [3]: 96 µM
CC50 [4]: > 100 µM
EC50 [5]: 0.1 to 0.9 nM
EC90 [5]: 1 to 9 nM

Cc1c(C(=O)C(=O)NCC#N)c(C)n(C)c1C(=O)Nc1ccc(F)c(F)c1 [Compound 81, 4-(2-((cyanomethyl)amino)-2-oxoacetyl)-N-(3,4-difluorophenyl)-1,3,5-trimethyl-1H-pyrrole-2-carboxamide]
CC50 [1]: 30 µM
CC50 [2]: 33 µM
CC50 [3]: > 100 µM
CC50 [4]: 71 µM
EC50 [5]: 1 to 9 nM
EC90 [5]: 100 to 900 nM

Cn1cc(NS(=O)(=O)c2ccccc2)cc1C(=O)Nc1ccc(F)c(F)c1 [Compound 36, N-(3,4-difluorophenyl)-1-methyl-4-(phenylsulfonamido)-1H-pyrrole-2-carboxamide]
CC50 [1]: 13.9 µM
CC50 [2]: 36.7 µM
CC50 [3]: 22.9 µM
CC50 [4]: 43.5 µM
EC50 [5]: 100 to 900 nM
EC90 [5]: 1000 to 9000 nM

C#CCNC(=O)C(=O)c1c(C)c(C(=O)Nc2ccc(F)c(C#N)c2)n(C)c1C [Compound 7b, N-(3-cyano-4-fluorophenyl)-1,3,5-trimethyl-4-(2-oxo-2-(prop-2-yn-1-ylamino)acetyl)-1H-pyrrole-2-carboxamide]
CC50 [1]: > 100 µM
CC50 [2]: > 100 µM
CC50 [3]: > 100 µM
CC50 [4]: > 100 µM
EC50 [5]: 10 to 90 nM
EC90 [5]: 100 to 900 nM

Cc1c(C(=O)C(=O)NCC#Cc2nccn2C)c(C)n(C)c1C(=O)Nc1ccc(F)c(F)c1 [Compound 83, N-(3,4-difluorophenyl)-1,3,5-trimethyl-4-(2-((3-(1-methyl-1H-imidazol-2-yl)prop-2-yn-1-yl)amino)-2-oxoacetyl)-1H-pyrrole-2-carboxamide]
CC50 [1]: 7 µM
CC50 [2]: 4 µM
CC50 [3]: 7 µM
CC50 [4]: 42 µM
EC50 [5]: 1000 to 9000 nM

Cn1cc(C(=O)C(=O)Nc2nccs2)cc1C(=O)Nc1ccc(F)c(F)c1 [Compound 26, N-(3,4-difluorophenyl)-1-methyl-4-(2-oxo-2-(thiazol-2-ylamino)acetyl)-1H-pyrrole-2-carboxamide]
CC50 [1]: > 100 µM
CC50 [2]: > 100 µM
CC50 [3]: 31.2 µM
CC50 [4]: > 100 µM
EC50 [5]: 100 to 900 nM
EC90 [5]: 1000 to 9000 nM

C#CCNC(=O)C(=O)c1c(C)c(C(=O)Nc2cncnc2)n(C)c1C [Compound 62, 1,3,5-trimethyl-4-(2-oxo-2-(prop-2-yn-1-ylamino)acetyl)-N-(pyrimidin-5-yl)-1H-pyrrole-2-carboxamide]
CC50 [1]: > 100 µM
CC50 [2]: > 100 µM
CC50 [3]: > 100 µM
CC50 [4]: > 100 µM
EC50 [5]: 1000 to 9000 nM
EC90 [5]: 1000 to 9000 nM

Cc1c(C(=O)C(=O)NCc2ccccn2)c(C)n(C)c1C(=O)Nc1ccc(F)c(F)c1 [Compound 47, N-(3,4-difluorophenyl)-1,3,5-trimethyl-4-(2-oxo-2-((pyridin-2-ylmethyl)amino)acetyl)-1H-pyrrole-2-carboxamide]
CC50 [1]: > 100 µM
CC50 [2]: 47 µM
CC50 [3]: 51 µM
CC50 [4]: 35 µM
EC50 [5]: 10 to 90 nM
EC90 [5]: 100 to 900 nM

C#CCNC(=O)C(=O)c1c(C)c(C(=O)Nc2ccc(F)nc2)n(C)c1C [Compound 61, N-(6-fluoropyridin-3-yl)-1,3,5-trimethyl-4-(2-oxo-2-(prop-2-yn-1-ylamino)acetyl)-1H-pyrrole-2-carboxamide]
CC50 [1]: > 100 µM
CC50 [2]: > 100 µM
CC50 [3]: > 100 µM
CC50 [4]: > 100 µM
EC50 [5]: 100 to 900 nM
EC90 [5]: 100 to 900 nM

C#CCNC(=O)C(=O)c1c(C)c(C(=O)NC(C)(C)c2ccc(F)c(F)c2)n(C)c1C [Compound 56, N-(2-(3,4-difluorophenyl)propan-2-yl)-1,3,5-trimethyl-4-(2-oxo-2-(prop-2-yn-1-ylamino)acetyl)-1H-pyrrole-2-carboxamide]
CC50 [1]: > 100 µM
CC50 [2]: > 100 µM
CC50 [3]: > 100 µM
CC50 [4]: > 100 µM
EC50 [5]: 1000 to 9000 nM

C#CCNC(=O)C(=O)c1c(C)c(C(=O)Nc2ccncc2)n(C)c1C [Compound 63, 1,3,5-trimethyl-4-(2-oxo-2-(prop-2-yn-1-ylamino)acetyl)-N-(pyridin-4-yl)-1H-pyrrole-2-carboxamide]
CC50 [1]: > 100 µM
CC50 [2]: > 100 µM
CC50 [3]: > 100 µM
CC50 [4]: > 100 µM
EC50 [5]: 100 to 900 nM
EC90 [5]: 1000 to 9000 nM

C=CCNC(=O)C(=O)c1cc(C(=O)Nc2ccc(F)c(F)c2)n(C)c1 [Compound 25, 4-(2-(allylamino)-2-oxoacetyl)-N-(3,4-difluorophenyl)-1-methyl-1H-pyrrole-2-carboxamide]
CC50 [1]: > 100 µM
CC50 [2]: > 100 µM
CC50 [3]: 68.1 µM
CC50 [4]: > 100 µM
EC50 [5]: 10 to 90 nM
EC90 [5]: 1000 to 9000 nM

C#CCNC(=O)C(=O)c1c(C)c(C(=O)Nc2ccc(F)c(Cl)c2)n(C)c1C [Compound 66, N-(3-chloro-4-fluorophenyl)-1,3,5-trimethyl-4-(2-oxo-2-(prop-2-yn-1-ylamino)acetyl)-1H-pyrrole-2-carboxamide]
CC50 [1]: > 100 µM
CC50 [2]: 52 µM
CC50 [3]: 70 µM
CC50 [4]: 83 µM
EC50 [5]: 1 to 9 nM
EC90 [5]: 10 to 90 nM

Cc1c(C(=O)C(=O)N2CCN(C)CC2)c(C)n(C)c1C(=O)Nc1ccc(F)c(F)c1 [Compound 44, N-(3,4-difluorophenyl)-1,3,5-trimethyl-4-(2-(4-methylpiperazin-1-yl)-2-oxoacetyl)-1H-pyrrole-2-carboxamide]
CC50 [1]: 92 µM
CC50 [2]: 17 µM
CC50 [3]: > 100 µM
CC50 [4]: 90 µM
EC50 [5]: 100 to 900 nM
EC90 [5]: 1000 to 9000 nM

Cc1c(C(=O)C(=O)Nc2nccs2)c(C)n(C)c1C(=O)Nc1ccc(F)c(F)c1 [Compound 78, N-(3,4-difluorophenyl)-1,3,5-trimethyl-4-(2-oxo-2-(thiazol-2-ylamino)acetyl)-1H-pyrrole-2-carboxamide]
CC50 [1]: > 100 µM
CC50 [2]: 15 µM
CC50 [3]: > 100 µM
CC50 [4]: 84 µM
EC50 [5]: 1 to 9 nM
EC90 [5]: 10 to 90 nM

Cc1c(C(=O)C(=O)Nc2ccccc2)c(C)n(C)c1C(=O)Nc1ccc(F)c(F)c1 [Compound 69, N-(3,4-difluorophenyl)-1,3,5-trimethyl-4-(2-oxo-2-(phenylamino)acetyl)-1H-pyrrole-2-carboxamide]
CC50 [1]: > 100 µM
CC50 [2]: > 100 µM
CC50 [3]: 48 µM
CC50 [4]: 59 µM
EC50 [5]: 1 to 9 nM
EC90 [5]: 10 to 90 nM

CCN(CC)C(=O)C(=O)c1c(C)c(C(=O)Nc2ccc(F)c(F)c2)n(C)c1C [Compound 45, 4-(2-(diethylamino)-2-oxoacetyl)-N-(3,4-difluorophenyl)-1,3,5-trimethyl-1H-pyrrole-2-carboxamide]
CC50 [1]: 90 µM
CC50 [2]: 36 µM
CC50 [3]: 47 µM
CC50 [4]: 75 µM
EC50 [5]: 100 to 900 nM
EC90 [5]: 1000 to 9000 nM
